Measurements: US20260294770A1, “FORMULATIONS OF NARINGENIN” (DEBUT BIOTECHNOLOGY, INC., priority 2023, published 2026)

Key:
UPK1A = assay: Upregulation of gene expression and/or activity, 1% naringenin: UPK1A
Source text: (§1) In certain embodiments, administration of a composition comprising naringenin leads to up-regulation of LCE5A, KRT77, ALOXE3, KRT1, HPGD, MUCL1, CASP14, WFDC12, KRT10, DNASE1L2, IL37, SERPINB12, HAL, UPK1A, CALML5, LCE2B, and/or MIR205. In certain embodiments, administration of a composition comprising naringenin leads to down-regulation of CCL11, CSF2, IL23A, IL11, BMP6, IL13RA2, C2CD4A, NR4A2, C2CD4B, FGF2, FARP4, GDF15, THBS1, HSPA1A, PTGS2, and/or DKK1. Tables 10 and 11 provide data for upregulation and downregulation respectively of certain genes after administration of compositions comprising 1% naringenin.
Uroplakin 1A (UPK1A) is involved in cell proliferation. The proteins in this family mediate signal transduction events that play a role in the regulation of cell development, activation, growth and motility. This encoded protein is found in the asymmetrical unit membrane (AUM) where it can complex with other transmembrane 4 superfamily proteins. UP1A may play a role in normal bladder epithelial physiology, possibly in regulating membrane permeability of superficial umbrella cells or in stabilizing the apical membrane through AUM/cytoskeletal interactions. In certain embodiments, compositions comprising naringenin leads to upregulation of UPK1A, which leads to increase cell proliferation, including the cells in the skin and the underlying tissues. […]

PTGS2 = assay: Downregulation of gene expression and/or activity, 1% naringenin: PTGS2
Source text: as §1
Prostaglandin-endoperoxide synthase 2 (PTGS2) plays a role in the production of signaling molecules that are involved in the inflammatory response. For example, PTGS2 is involved in the conversion of arachidonic acid to prostaglandin H2, an important precursor of prostacyclin, which is expressed in inflammation. In certain embodiments, downregulation of PTGS2 leads to reduction in production of signaling molecules leading to inflammation. Thus, the downregulation of PTGS2 leads to reduced inflammation. In certain embodiments, the administration of composition comprising naringenin results in at least about 2 to about 10-fold downregulation of expression and/or activity of PTGS2. […]

HSPA1A = assay: Downregulation of gene expression and/or activity, 1% naringenin: HSPA1A
Source text: as §1
Heat shock protein family A (Hsp70) member 1A (HSPA1A) plays a role in clearing of aged cells and/or senolytic effect. In certain embodiments, the administration of compositions comprising naringenin leads to downregulation of expression and/or activity of HSPA1A. […] In certain embodiments, this may also lead to anti-aging effect for the skin. In certain embodiments, the administration of composition comprising naringenin results in at least about 2 to about 10-fold downregulation of expression and/or activity of HSPA1A. In certain embodiments, the administration of composition comprising naringenin results in at least about five (5) fold downregulation of expression and/or activity of HSPA1A.

DNASE1L2 = assay: Upregulation of gene expression and/or activity, 1% naringenin: DNASE1L2
Source text: as §1
Deoxyribonuclease-1-like 2 (DNASE1L2) plays a role in recycling of dying cells. Hair, nails, and the cornified layer of the epidermis, i.e. the stratum corneum, consist of cornified keratinocytes, also known as corneocytes. The process of cornification involves the cross-linking of structural proteins and leads to the high mechanical stability of corneocytes which, along with the formation of stable desmosomal links between cells, is essential for the resistance of epidermal structures to stress from the environment DNASE1L2 is a keratinocyte-specific DNase. DNASE1L2 breakdown of the nucleus in skin appendages and distinct epithelia whereas cornification of the interfollicular epidermis. […]

HPGD = assay: Upregulation of gene expression and/or activity, 1% naringenin: HPGD
Source text: as §1
Hydroxyprostaglandin dehydrogenase (HPGD) has an anti-inflammatory function. In particular, it is involved in degradation of molecules that lead to inflammatory signaling. For example, HPGD is involved in degradation of prostaglandin, which is involved in inflammatory signaling pathway. In certain embodiments, upregulation of expression and/or activity of HPGD leads to an anti-inflammatory effect. In certain embodiments, upregulation of HPGD leads to increase in degradation of signaling molecules that are involved in inflammation. Thus, the upregulation of HPGD leads to reduced inflammation. In certain embodiments, the administration of composition comprising naringenin results in at least about 5 to about 20-fold upregulation of expression and/or activity of HPGD. […]

O=C1C[C@@H](c2ccc(O)cc2)Oc2cc(O)cc(O)c21 [naringenin, (2S)-5,7-Dihydroxy-2-(4-hydroxyphenyl)-2,3-dihydro-4H-1-benzopyran-4-one]
Fold-increase in expression and/or activity of UPK1A (UPK1A): ~10 fold | fold downregulation in expression and/or activity of PTGS2 (PTGS2): ~6 fold | Fold-increase (downregulation table) PTGS2 (PTGS2; negative = downregulation): −6 fold | fold downregulation in expression and/or activity of HSPA1A (HSPA1A): ~6 fold | Fold-increase (downregulation table) HSPA1A (HSPA1A; negative = downregulation): −6 fold | Fold-increase in expression and/or activity of DNASE1L2 (DNASE1L2): ~9 fold | Fold-increase in expression and/or activity of HPGD (HPGD): ~10 fold
